Patent US11214803B2, “Modulators of YAP1 expression” (Ionis Pharmaceuticals, Inc., priority 2019, dated 2022)
Strand notation (5' to 3'): a small letter for the sugar, then the base; units joined by * are phosphorothioate-linked, units joined directly phosphodiester-linked; [ ] holds rarer units or linkages, { } end groups; capitals alone tell only the bases. k = constrained ethyl (cEt); [5mC] = 5-methylcytosine; d = 2'-deoxy (DNA)

System: Yap1 mRNA
Assay: Antisense inhibition of human Yap1 in A-431 cells by cEt gapmers, single dose (Example 2, RTS4814)
Assay type: cell-based
Outline: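 Each 16-nucleoside gapmer (ten-deoxy gap, three-cEt wings) is tested once at 2,000 nM in A-431 cells by free uptake. Yap1 mRNA after about 48 hours is measured by quantitative RT-PCR and expressed relative to untreated control.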

[1] = Table 6, A-431 cells, 5,000 cells per well, free uptake, 2,000 nM modified oligonucleotide, approx. 48 hours, RTS4814, normalized to RIBOGREEN, Yap1 mRNA relative to untreated control cells
[2] = Table 24, Yap1 mRNA as percent of untreated control, 3-10-3 cEt gapmers targeting SEQ ID NO.: 1, and 2
[3] = Table 32, Yap1 mRNA, percent of untreated control, 3-10-3 cEt gapmers targeting SEQ ID NO.: 1, and 2
[4] = Table 18, A-431 cells, 5,000 cells per well, free uptake, 2,000 nM modified oligonucleotide, approx. 48 hours, RTS4814, normalized to RIBOGREEN, Yap1 mRNA as percent of untreated control
[5] = Table 19, A-431 cells, 5,000 cells per well, free uptake, 2,000 nM modified oligonucleotide, approx. 48 hours, RTS4814, normalized to RIBOGREEN, Yap1 mRNA as percent of untreated control
[6] = Yap1 mRNA as percent of untreated control, A-431 cells, 3-10-3 cEt gapmers targeting SEQ ID NO.: 1, and 2, Table 31
[7] = Table 22, Yap1 mRNA as percent of untreated control, 3-10-3 cEt gapmers, single dose
[8] = Table 5, A-431 cells, 5,000 cells per well, free uptake, 2,000 nM modified oligonucleotide, approx. 48 hours, RTS4814, normalized to RIBOGREEN, Yap1 mRNA relative to untreated control cells
[9] = Table 21, Yap1 mRNA, percent of untreated control, 3-10-3 cEt gapmers targeting SEQ ID NO.: 1 and 2
[10] = Table 23, Yap1 mRNA as percent of untreated control, 3-10-3 cEt gapmers, single dose
[11] = Table 20, Yap1 mRNA, percent of untreated control, 3-10-3 cEt gapmers targeting SEQ ID NO.: 1 and 2

## 1074699 (antisense k[5mC]*kT*kA*dT*d[5mC]*dA*dA*dG*dG*dT*d[5mC]*d[5mC]*d[5mC]*k[5mC]*k[5mC]*kT) [Compound 1074699]
Table 25, Yap1 mRNA as percent of untreated control, 3-10-3 cEt gapmers targeting SEQ ID NO.: 1, and 2
  YAP1 (% UTC): 27 % UTC

## 716438 (kA*kT*kT*dT*dT*dT*dG*dG*d[5mC]*dT*dT*dG*dT*k[5mC]*kA*kG; antisense) [Compound 716438]
[1]
  YAP1 (% UTC): 32 % UTC

## 1074986 (antisense k[5mC]*kT*kA*d[5mC]*dT*dG*dT*dA*dA*dT*d[5mC]*dA*d[5mC]*k[5mC]*kT*kT) [Compound 1074986]
[2]
  YAP1 (% UTC): 78 % UTC

## 716430 (kT*kA*kA*d[5mC]*dT*dG*dG*dG*d[5mC]*dA*dA*dA*dA*kG*kG*kA; antisense) [Compound 716430]
A-431 cells, 5,000 cells per well, free uptake, 2,000 nM modified oligonucleotide, approx. 48 hours, RTS4814, normalized to RIBOGREEN, Table 4, asterisk (*) = targets amplicon region of primer probe set
  YAP1 (% UTC): 28 % UTC

## 1076402 (antisense k[5mC]*kG*kT*dA*dA*dT*dT*dA*dT*dT*dT*dT*dT*kG*k[5mC]*kT) [compound 1076402]
[3]
  YAP1 (% UTC): 38 % UTC

## 1074916 (antisense kA*kA*kG*dT*dT*dA*d[5mC]*dA*dT*d[5mC]*d[5mC]*d[5mC]*dG*kA*kG*kT) [Compound 1074916]
[4]
  YAP1 (% UTC): 75 % UTC

## 1075248 (kG*kT*kA*d[5mC]*dA*dA*dA*dA*dA*dG*d[5mC]*dG*dG*kT*k[5mC]*kG; antisense) [compound 1075248]
Yap1 mRNA as percent of untreated control, A-431 cells, 3-10-3 cEt gapmers targeting SEQ ID NO.: 1, and 2, Table 30
  YAP1 (% UTC): 64 % UTC

## 1075877 (k[5mC]*kT*kG*dG*dA*dA*dA*dA*dG*dT*dA*d[5mC]*dA*kT*kT*k[5mC]; antisense) [Compound 1075877]
[5]
  YAP1 (% UTC): 28 % UTC

## 1075409 (antisense k[5mC]*kT*kT*dT*dA*dA*dA*dT*dA*dG*d[5mC]*dA*dG*kA*kG*kG) [compound 1075409]
[6]
  YAP1 (% UTC): 22 % UTC

## 1074120 (antisense kG*k[5mC]*kG*dA*dG*dG*d[5mC]*dA*d[5mC]*dT*d[5mC]*dG*dG*kA*k[5mC]*k[5mC]) [Compound 1074120]
[7]
  YAP1 (% UTC): 50 % UTC

## 716383 (kT*k[5mC]*kA*dT*d[5mC]*dA*dT*dA*dT*dT*d[5mC]*dT*dG*k[5mC]*kT*kG; antisense) [Compound 716383]
[8]
  YAP1 (% UTC): 98 % UTC

## 1075527 (kA*kT*kT*dT*dA*dA*dT*dT*dA*dA*dG*dG*dG*k[5mC]*k[5mC]*k[5mC]; antisense) [Compound 1075527]
[9]
  YAP1 (% UTC): 82 % UTC

## 1075783 (k[5mC]*kT*kT*dA*dA*dT*dT*dT*dA*d[5mC]*d[5mC]*dT*dG*kA*kA*k[5mC]; antisense) [Compound 1075783]
[9]
  YAP1 (% UTC): 36 % UTC

## 1075720 (k[5mC]*kT*kT*dT*dA*d[5mC]*dT*dA*d[5mC]*dA*dT*dA*dT*kA*kG*k[5mC]; antisense) [Compound 1075720]
[7]
  YAP1 (% UTC): 47 % UTC

## 1074920 (antisense kA*k[5mC]*kT*d[5mC]*dA*dA*dG*dT*dT*dA*d[5mC]*dA*dT*k[5mC]*k[5mC]*k[5mC]) [Compound 1074920]
[7]
  YAP1 (% UTC): 68 % UTC

## 1074952 (antisense kG*kT*kT*dT*dT*dT*dG*dT*d[5mC]*dA*dT*d[5mC]*dA*kG*kG*kT) [Compound 1074952]
[7]
  YAP1 (% UTC): 42 % UTC

## 1075589 (kA*kA*kT*dT*dA*dG*d[5mC]*dA*dG*dG*dG*d[5mC]*dA*kG*kA*k[5mC]; antisense) [Compound 1075589]
[5]
  YAP1 (% UTC): 84 % UTC

## 1074602 (antisense kT*k[5mC]*k[5mC]*dA*dG*d[5mC]*dT*dA*dA*d[5mC]*dT*d[5mC]*dA*kA*kA*kA) [Compound 1074602]
[2]
  YAP1 (% UTC): 24 % UTC

## 1074245 (antisense kA*kG*kA*dA*dG*dT*dA*dT*d[5mC]*dT*d[5mC]*dT*dG*kA*k[5mC]*k[5mC]) [Compound 1074245]
[5]
  YAP1 (% UTC): 5 % UTC

## 1075145 (antisense kT*k[5mC]*k[5mC]*d[5mC]*dA*dA*dA*dA*dG*dG*dA*dG*dT*kA*kG*k[5mC]) [Compound 1075145]
[10]
  YAP1 (% UTC): 58 % UTC

## 716567 (kG*kA*k[5mC]*dT*dA*dT*dA*d[5mC]*dA*dA*d[5mC]*dA*dG*kG*k[5mC]*k[5mC]; antisense) [Compound 716567]
[1]
  YAP1 (% UTC): 134 % UTC

## 1074469 (k[5mC]*k[5mC]*k[5mC]*dA*d[5mC]*d[5mC]*dG*dA*d[5mC]*d[5mC]*d[5mC]*dT*dG*k[5mC]*k[5mC]*kA; antisense) [Compound 1074469]
[5]
  YAP1 (% UTC): 77 % UTC

## 1076228 (kA*kT*kT*dA*dA*d[5mC]*d[5mC]*dT*d[5mC]*dA*dG*dT*dG*kA*kG*k[5mC]; antisense) [Compound 1076228]
[4]
  YAP1 (% UTC): 69 % UTC

## 1075429 (antisense k[5mC]*kT*kT*dT*dA*d[5mC]*dT*dA*dT*d[5mC]*dT*dG*dG*kG*kT*k[5mC]) [Compound 1075429]
[5]
  YAP1 (% UTC): 23 % UTC

## 1074513 (kA*kG*kG*dA*dT*dA*d[5mC]*dA*dT*dT*d[5mC]*d[5mC]*dA*k[5mC]*kT*kA; antisense) [compound 1074513]
[6]
  YAP1 (% UTC): 47 % UTC

## 1074791 (k[5mC]*kT*k[5mC]*d[5mC]*dA*dT*d[5mC]*dA*dA*d[5mC]*d[5mC]*dA*dT*kA*kA*kG; antisense) [Compound 1074791]
[9]
  YAP1 (% UTC): 20 % UTC

## 1076103 (kG*k[5mC]*kT*dT*dA*dA*d[5mC]*dA*dA*dA*dT*d[5mC]*dA*kG*k[5mC]*k[5mC]; antisense) [Compound 1076103]
[9]
  YAP1 (% UTC): 79 % UTC

## 1076434 (k[5mC]*kT*kT*dT*dA*dG*dG*dT*dT*dT*dA*dT*dG*k[5mC]*k[5mC]*kT; antisense) [compound 1076434]
[3]
  YAP1 (% UTC): 25 % UTC

## 1075078 (antisense k[5mC]*kA*kA*d[5mC]*dT*dA*dT*dA*d[5mC]*dG*dG*dT*d[5mC]*k[5mC]*kA*kT) [Compound 1075078]
[11]
  YAP1 (% UTC): 3 % UTC

## 1076178 (k[5mC]*k[5mC]*kT*dG*dA*dA*dA*dT*dA*d[5mC]*dA*dG*dG*kT*kG*kT; antisense) [compound 1076178]
[3]
  YAP1 (% UTC): 100 % UTC

## 716542 (antisense k[5mC]*kT*kT*d[5mC]*d[5mC]*d[5mC]*dT*dG*dT*dG*dT*dT*d[5mC]*kA*kT*kT) [Compound 716542]
[8]
  YAP1 (% UTC): 45 % UTC

## 1075271 (antisense kG*kA*kT*dG*dT*dG*dA*dT*d[5mC]*dT*dG*dT*dG*kA*kG*kA) [Compound 1075271]
[9]
  YAP1 (% UTC): 11 % UTC

## 1075460 (antisense kA*kA*kT*dA*dA*d[5mC]*d[5mC]*dA*dA*dG*dG*dA*dT*kA*kG*kT) [Compound 1075460]
[4]
  YAP1 (% UTC): 30 % UTC

## 1074130 (kA*kT*k[5mC]*d[5mC]*d[5mC]*d[5mC]*d[5mC]*dG*d[5mC]*d[5mC]*d[5mC]*d[5mC]*dG*kG*k[5mC]*kG; antisense) [compound 1074130]
[3]
  YAP1 (% UTC): 119 % UTC

## 1074310 (antisense kT*k[5mC]*k[5mC]*dG*d[5mC]*dA*dT*dT*dG*d[5mC]*d[5mC]*dT*dG*kT*kG*kG) [Compound 1074310]
[11]
  YAP1 (% UTC): 100 % UTC

## 1074802 (kG*kG*k[5mC]*dA*d[5mC]*dT*dA*d[5mC]*dA*dT*dT*dT*dA*kG*kA*kA; antisense) [compound 1074802]
[3]
  YAP1 (% UTC): 37 % UTC

## 716507 (antisense kA*k[5mC]*kT*dA*d[5mC]*dT*d[5mC]*dT*dA*dA*dA*dA*d[5mC]*kT*k[5mC]*k[5mC]) [Compound 716507]
[1]
  YAP1 (% UTC): 53 % UTC

## 1074771 (kA*kA*kT*d[5mC]*dT*dT*dA*dT*d[5mC]*d[5mC]*d[5mC]*dA*dA*kT*kG*k[5mC]; antisense) [compound 1074771]
Table 33, Yap1 mRNA, percent of untreated control, 3-10-3 cEt gapmers targeting SEQ ID NO.: 1, and 2
  YAP1 (% UTC): 18 % UTC

## 716405 (kT*kG*kT*dT*dA*dA*dG*dG*dA*dA*dA*dG*dG*kA*kT*k[5mC]; antisense) [Compound 716405]
[1]
  YAP1 (% UTC): 149 % UTC

## 1074121 (antisense kT*kG*k[5mC]*dG*dA*dG*dG*d[5mC]*dA*d[5mC]*dT*d[5mC]*dG*kG*kA*k[5mC]) [Compound 1074121]
[10]
  YAP1 (% UTC): 87 % UTC

## 1074282 (antisense k[5mC]*kG*kA*dG*dG*dG*dT*d[5mC]*dA*dA*dG*d[5mC]*d[5mC]*kT*kT*kG) [Compound 1074282]
[2]
  YAP1 (% UTC): 83 % UTC

## 1076392 (kT*kA*kT*dT*dA*dA*dT*d[5mC]*dA*dA*dA*dT*dA*kG*kG*kG; antisense) [Compound 1076392]
[7]
  YAP1 (% UTC): 64 % UTC

## 1075433 (antisense kT*kT*kA*dA*d[5mC]*dT*dA*dA*d[5mC]*dT*dA*dA*dA*k[5mC]*kT*kG) [Compound 1075433]
[10]
  YAP1 (% UTC): 124 % UTC

## 1075882 (kG*kA*kA*dA*dA*dT*d[5mC]*d[5mC]*dT*dG*dA*dT*dT*kA*kA*k[5mC]; antisense) [Compound 1075882]
[2]
  YAP1 (% UTC): 73 % UTC
